Laboratory results as given in patent US10328075B2, “Method of treatment and compounds for use therein” (Baker Heart and Diabetes Institute, priority 2015, dated 2019).
Where two headings read alike, the source gives them in different places.

Target: T1, hFPR2 (Homo sapiens, UniProt P25090)
T1 construct: expressed in transfected cells
T1 sequence (P25090 1-351): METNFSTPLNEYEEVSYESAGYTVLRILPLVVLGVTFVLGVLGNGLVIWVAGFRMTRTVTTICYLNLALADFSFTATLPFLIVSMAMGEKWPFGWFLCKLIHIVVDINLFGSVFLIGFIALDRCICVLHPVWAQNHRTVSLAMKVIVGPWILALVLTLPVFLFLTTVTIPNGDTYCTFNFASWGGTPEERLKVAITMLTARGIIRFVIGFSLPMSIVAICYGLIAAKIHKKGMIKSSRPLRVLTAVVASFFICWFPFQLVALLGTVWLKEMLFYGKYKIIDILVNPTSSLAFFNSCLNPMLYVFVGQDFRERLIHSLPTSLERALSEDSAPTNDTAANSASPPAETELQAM
Experiment: Inhibition of forskolin-stimulated cAMP accumulation in hFPR2-FlpIn-CHO cells
Assay type: cell-based
Conditions: for ΔLog(τ/KA), inhibition of cAMP accumulation, hFPR2-Flpln-CHO: normalized transduction coefficient, reference agonist Cmpd43; for Log(τ/KA), inhibition of cAMP accumulation, hFPR2-Flpln-CHO: transduction coefficient; for Effect on the cAMP response at hFPR2: over the concentration range tested
Description: cDNDA construct and generation of stable cell lines: cDNA in pcDNA3.1^+ encoding the human formyl peptide receptors (FPR) subtypes, hFPR1, hFPR2 and hFPR3 was obtained from Invitrogen. The sequences for 3 hFPR receptors were amplified by PCR and cloned into the Gateway entry vector, pDONR202™, using the BP clonase enzyme mix, according to the manufactures' instructions (Invitrogen Inc, Carlsbad, Calif., USA). All hFPR receptors constructs in pDONR201™ were subsequently transfected into the pEF5/FRT/V5/dest vector using the LR clonase enzyme mix (Invitrogen). Receptor constructs (pEF5/FRT/V5/dest) were used to transfect FIp-In CHO cells as described previously (Valant C et al., PNAS, 2014). Cells were selected using 500 μg/mL hydromycin to generate cell lines stably expressing each receptor construct. Cells were maintained and cultured in high glucose DMEM supplemented with 10% FBS, 16 mM HEPES and 500 μg/mL hydromycin at 37° C. under a humidified atmosphere containing 5% CO2.
In the various assays described below, cells were plated into 96-well transparent cell culture plates at 4×10^4 cells per well, cultured overnight in serum-free media at 37° C. in 5% CO2.
cAMP Accumulation: CHO-hFPR1, -hFPR2 and -hFPR3 stable transfected cells were plated into 96-well plates and cultured overnight at 37° C. in 5% CO2. Cells were washed with PBS, and cultured overnight. […] Cells were lysed in detection buffer (dH2O, 0.3% Tween 20, 5 mM HEPES, 0.1% BSA). Lysates were transferred to a 384-well plate and mixtures of detection buffer/donor bead-conjugated anti-cAMP antibody and detection buffer: biotinylated cAMP: acceptor bead-conjugated streptavidin were added to the lysates according to the PerkinElmer cAMP Alphascreen protocol. Under low-light conditions, a 1:50 (v:v) dilution of AlphaScreen acceptor beads: stimulation buffer was prepared, 1:150 (v:v) dilution of donor beads and 50 nM biotinylated cAMP in detection buffer was prepared in a 384-well opaque optiplates. Plates were incubated in the dark at room temperature overnight before the fluorescence signal was measured by use of a Fusion-α plate reader (PerkinElmer Life and Analytical Sciences). Data were normalized to the response elicited by 10 μM forskolin at the same time point.
Data analysis: All data were analysed using GraphPad Prism 6.0 (GraphPad Software, San Deigo, Calif., USA). Where appropriate, concentration-response curves were fitted to derive the maximal agonist effect (Emax), and the ligand potency estimate (pEC50), where Emax is the maximal possible response of the system (not the agonist), basal is the basal level of response in the absence of agonist, and pEC50 is the negative logarithm of the agonist concentration that gives a response halfway between Emax and basal.
In the present study, FIp-IN CHO cells and Gateway plasmid were obtained from Invitrogen Inc (Carlsbad, Calif., USA). The sequences for all 3 known human FPRs (hFPR1, hFPR2 and hFPR3) were amplified by PCR and cloned into the Gateway entry vector, pDONR202TM, using the BP clonase enzyme mix, according to the manufacturers' instructions. The hFPR pDONR201TM constructs were subsequently transfected into the pEF5/FRT/V5/dest vector using the LR clonase enzyme mix (Invitrogen). Receptor constructs (pEF5/FRT/V5/dest) were used to transfect FIp-IN CHO cells, as described previously (Valant et al. 2014). Cells were selected using 500 μg/mL hydromycin to generate cell lines stably expressing each human receptor construct. Cells were maintained and cultured in high glucose Dulbecco's modified eagle medium (DMEM) supplemented with 10% fetal bovine serum (FBS, from JRH Biosciences, Lenexa, Kans., USA) and 500 μg/mL hydromycin B (Invitrogen Inc) at 37° C. under a humidified atmosphere containing 5% CO2. Cell were plated into 96-well transparent cell culture plates at 4×10^4 cells per well, cultured overnight in serum-free media at 37° C. in 5% CO2.

[1] = Table 4, percentage inhibition of forskolin-stimulated cAMP accumulation, read-out: Emax (%), inhibition to cAMP accumulation, hFPR2-Flpln-CHO
[2] = Table 8, percent inhibition of forskolin-induced cAMP accumulation, read-out: Emax, inhibition of cAMP accumulation, hFPR2-Flpln-CHO

Structure (SMILES)	Emax [1] [%]	EC50 (Table 4, read-out: pEC50, inhibition to cAMP accumulation, hFPR2-Flpln-CHO (converted)) [µM]	ΔLog(τ/KA), inhibition of cAMP accumulation, hFPR2-Flpln-CHO (Table 8)	Emax [2] [%]	EC50 (Table 8, read-out: pEC50, inhibition of cAMP accumulation, hFPR2-Flpln-CHO (converted)) [µM]	Log(τ/KA), inhibition of cAMP accumulation, hFPR2-Flpln-CHO (Table 8)	Effect on the cAMP response at hFPR2
CC(C)C1C(NC(=O)Nc2ccc(Cl)cc2)C(=O)N(c2ccccc2)N1C (stereo not drawn) [BIDI-002]	66 ± 6	0.17	0.0	66 ± 6	0.251	6.5 ± 0.1	caused an inhibition of the cAMP response
CSCC[C@H](NC=O)C(=O)N[C@@H](CC(C)C)C(=O)N[C@@H](Cc1ccccc1)C(=O)O [fMLP, N-formyl-Met-Leu-Phe]	10 ± 8		−1.6 ± 0.2	10 ± 8		4.9 ± 0.1	caused an inhibition of the cAMP response
